Source: patent US7241570B2, “Method of screening for agents that regulate the shedding of membrane bound proteins and methods of use” (University of Utah Research Foundation, priority 2001, dated 2007)

What was measured:
[1] = test system: TNFα release from liver and spleen cell suspensions; assay: TNFα ectodomain shedding from liver and spleen cell suspensions (ELISA); type: cell-based, mouse; conditions: LPS 5 μg/mL, PMA 50 ng/mL, liver and spleen cell suspensions of newborn mice
Protocol: TACE was originally identified as the enzyme that proteolytically releases TNFα from the cell surface. Black, R. et al. Nature 385, 729-733 (1997); Moss, M. L. et al. Nature 385, 733-736 (1997). Whether deleting DGKδ affected ectodomain shedding of TNFα from liver and spleen cell suspensions was tested—where hematopoietic activity is highest in newborn mice. Tamura, K. et al. Cell 102, 221-231 (2000). To induce release on TNFα, the cell suspensions were stimulated with lipopolysaccharide (LPS, […]), PMA (50 ng/mL), or a combination of LPS (5 μg/mL) and PMA (50 ng/mL). As measured by ELISA, both agents induced release of TNFα into the medium, with LPS inducing a five-fold increase and PMA causing a three-fold increase. Combining LPS and PMA increased TNFα shedding twenty-fold. […] Reddy, P. et al. J. Biol. Chem. 275, 14608-14614 (2000)

[2] = test system: phosphorylated ERK1 and 2; assay: ERK phosphorylation after exogenous EGF in primary embryonic fibroblasts (immunoblot densitometry); type: cell-based, mouse
Source text: Whether signaling downstream of EGFR was affected in DGKδ mutant mice was also examined. Since the MAPK pathway is a major route of EGFR signaling, ERK phosphorylation was examined in cell lines developed from knockout mice. Prenzel, N., et al. Endocrine-Related Cancer 8, 11-31 (2001). In primary embryonic fibroblasts from wild-type mice, exogenous EGF caused a 2.2 fold increase in phosphorylated ERK1 and 2 as judged by densitometry of the immunoblot bands (FIG. 3). […] Activation of EGFR signaling is known to mediate stress fiber formation induced by serum factors. Prenzel, N., et al. Endocrine-Related Cancer 8, 11-31 (2001). […] Thus, whether DGKδ affects the activity of TACE was examined next.

[3] = test system: β-APP shedding from embryonic fibroblasts; assay: Release of endogenous β-APP from embryonic fibroblasts; type: cell-based, mouse
Source text: TACE is the only enzyme known to shed soluble TGFα, a process enhanced by stimulation with serum or PMA. Peschon, J. J. et al. Science 282, 1281-1284 (1998). It is not known whether or not the cytoplasmic tail of TACE is required to activate TGFα shedding. To test if DGKδ affected release of TGFα, the amounts of soluble TGFα in the culture media of dgkd^−/− and wild-type embryonic fibroblasts transfected with pro-TGFα were compared. […] Supporting a role for DGKδ in stimulated TGFα shedding, PMA-induced shedding of TGFα by dgkd^−/− cells was approximately 25% that of stimulated wild-type cells (FIG. 4A, left). […] Since TACE is the only enzyme known to shed TGFα, DGKδ was likely affecting TACE. TACE is also known to cleave β-APP, so the release of endogenous β-APP from embryonic fibroblasts was examined next. Reddy, P. et al. J. Biol. Chem. 275, 14608-14614 (2000).

DGKδ and TACE = assay: Co-immunoprecipitation of DGKδ and myc-TACE overexpressed in COS7 cells; type: cell-based; conditions: COS7 cells after starvation (0.5% serum for 2 hrs)
Source text: According to previous experiments, DGKδ appears to regulate the activity of TACE toward some of its substrates. Based on the data, however, it is not clear whether DGKδ directly activates TACE or indirectly affects its activity through another protein. It was hypothesized that in order to regulate TACE, DGKδ must associate with it or a complex of proteins that contains TACE. To address whether this occurs in vivo, the enzymes were overexpressed in COS7 cells and then co-immunoprecipitation analysis was performed. Myc-tagged TACE in cell lysates was immunoprecipitated with an anti-myc monoclonal antibody, and then immune complexes were analyzed for co-immunoprecipitation of DGKδ by immunoblotting. When cells were grown in normal medium (10% FBS) DGKδ clearly co-immunoprecipitated with TACE (FIG. 6 left). Controls using normal IgG for immunoprecipitation instead of anti-myc antibody, or where anti-myc was used, but myc-TACE was not included in the transfection, established the specificity of DGKδ-TACE co-immunoprecipitation. Two agents previously shown to induce TACE activity are serum factors and PMA. […] Thus, stimuli that increase TACE activity enhance an interaction between DGKδ and TACE, providing further evidence that DGKδ positively regulates TACE activity.

[4] = test system: phosphatidylinositol 5-kinases; conditions: cited from earlier work

With lipopolysaccharide [LPS] the “increase in release of TNFα into the medium” value [1] was “five-fold”.

For EGF: exogenous EGF, EGF receptor ligand, the “increase in phosphorylated ERK1 and 2” value ([2]; primary embryonic fibroblasts from DGKδ null mice) was 2.1 fold and the “increase in phosphorylated ERK1 and 2” value ([2]; primary embryonic fibroblasts from wild-type mice, densitometry of immunoblot bands) was 2.2 fold.

In the case of CCCCCCCCCCCCCC(=O)O[C@@H]1[C@@H](C)[C@@]2(O)[C@@H](C=C(CO)C[C@]3(O)C(=O)C(C)=C[C@@H]23)[C@@H]2C(C)(C)[C@]12OC(C)=O [PMA], the “increase in β-APP shedding” value ([3]; dgkd+/+ embryonic fibroblasts) is reported as 6-8 fold, the “increase in β-APP shedding” value ([3]; dgkd−/− embryonic fibroblasts) is reported as “moderate increase” and the “co-immunoprecipitation of DGKδ and TACE” value (DGKδ and TACE) is reported as “significantly increased”. The “increase in release of TNFα into the medium” value [1] was “three-fold”.

For phosphatidic acid [PA], the “activity of phosphatidylinositol 5-kinases in the presence of PA” value [4] is listed as 8-14 fold.
